Test [1] has as its target T1, D(3) dopamine receptor (Homo sapiens, UniProt P35462). In words: Agonist activity at human D3R expressed in CHOK1 cells assessed as induction of beta-arrestin recruitment measured after 90 mins by beta-galactosidase based PathHunter assay. Format: cell-based.
Test [2] deals with T2, D(2) dopamine receptor (Homo sapiens, UniProt P14416). Kind of test: Agonist activity at human D2R expressed in CHOK1 cells assessed as induction of beta-arrestin recruitment measured after 90 mins by beta-galactosidase based PathHunter assay. Format: cell-based.
T2 sequence (P14416 whole entry): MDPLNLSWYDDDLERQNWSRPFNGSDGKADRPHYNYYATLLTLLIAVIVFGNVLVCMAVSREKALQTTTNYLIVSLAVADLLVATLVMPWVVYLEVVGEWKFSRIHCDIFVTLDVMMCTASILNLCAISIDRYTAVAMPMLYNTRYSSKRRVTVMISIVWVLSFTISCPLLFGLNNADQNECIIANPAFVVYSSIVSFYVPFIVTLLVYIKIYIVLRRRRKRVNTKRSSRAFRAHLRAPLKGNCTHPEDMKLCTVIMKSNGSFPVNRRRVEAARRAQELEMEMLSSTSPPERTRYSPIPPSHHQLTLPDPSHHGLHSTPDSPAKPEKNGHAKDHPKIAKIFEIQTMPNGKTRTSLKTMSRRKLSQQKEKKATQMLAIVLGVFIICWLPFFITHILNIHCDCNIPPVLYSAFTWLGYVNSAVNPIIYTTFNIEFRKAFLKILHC
For test [3], the target named is T2, D(2) dopamine receptor. Kind of test: Antagonist activity at human D2R expressed in CHOK1 cells assessed as inhibition of dopamine-induced beta-arrestin recruitment measured after 120 mins by beta-galactosidase based PathHunter assay relative to sulpiride. The test is classed as cell-based. The conditions noted are these: 2 h, read-out: Imax. For orientation: Activated receptors often draw arrestin, which recruitment assays turn into a signal.

The target of test [4] is T2, D(2) dopamine receptor.
For test [5], the target named is T1, D(3) dopamine receptor. In words: biochemical.
Test [6] has as its target 5-hydroxytryptamine receptor 2B (Homo sapiens, UniProt P41595). Kind of test: Antagonist activity at recombinant human 5-HT2B receptor expressed in CHOK1 cells assessed as inhibition of serotonin-induced increase in inositol1-phosphate accumulation measured after 30 mins by HTRF assay. Format: functional, cell-based. (In general: Time-resolved FRET reads energy transfer from a long-lived donor to a nearby acceptor.)

In test [7] the target is T2, D(2) dopamine receptor. Kind of test: Antagonist activity at human D2R expressed in CHOK1 cells assessed as inhibition of dopamine-induced beta-arrestin recruitment measured after 120 mins by beta-galactosidase based PathHunter assay. The test is classed as cell-based. The conditions noted are these: read-out: IC50.

T1 sequence (P35462 whole entry): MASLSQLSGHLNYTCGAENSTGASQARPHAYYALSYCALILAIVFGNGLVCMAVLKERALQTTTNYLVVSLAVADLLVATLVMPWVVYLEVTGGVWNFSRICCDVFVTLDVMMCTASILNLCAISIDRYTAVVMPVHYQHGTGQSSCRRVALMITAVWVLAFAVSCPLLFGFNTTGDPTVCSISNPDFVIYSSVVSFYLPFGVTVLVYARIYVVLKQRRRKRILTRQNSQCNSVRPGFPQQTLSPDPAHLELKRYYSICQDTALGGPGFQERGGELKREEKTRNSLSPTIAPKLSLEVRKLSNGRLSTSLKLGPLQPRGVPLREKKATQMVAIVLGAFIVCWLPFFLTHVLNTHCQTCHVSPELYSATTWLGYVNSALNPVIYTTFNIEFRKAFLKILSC
Chain of 5-hydroxytryptamine receptor 2B (P41595 whole entry): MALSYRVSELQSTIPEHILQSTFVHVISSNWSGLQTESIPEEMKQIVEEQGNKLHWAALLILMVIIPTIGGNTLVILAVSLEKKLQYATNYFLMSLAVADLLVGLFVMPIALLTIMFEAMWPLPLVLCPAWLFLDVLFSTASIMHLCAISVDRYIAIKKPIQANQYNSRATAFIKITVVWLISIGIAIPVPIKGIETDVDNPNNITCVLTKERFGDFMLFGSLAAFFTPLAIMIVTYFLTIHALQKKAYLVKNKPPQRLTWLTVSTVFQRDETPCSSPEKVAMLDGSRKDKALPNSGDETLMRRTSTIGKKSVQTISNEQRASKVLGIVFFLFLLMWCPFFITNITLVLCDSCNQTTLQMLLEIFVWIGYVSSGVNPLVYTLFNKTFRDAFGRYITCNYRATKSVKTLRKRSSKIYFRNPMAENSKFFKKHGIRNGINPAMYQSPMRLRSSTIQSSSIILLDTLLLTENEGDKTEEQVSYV

With `COc1ccc(OCCN2CCN(C(=O)c3ccc(OC)cc3)CC2)cc1`, the concentration giving a half-maximal response (EC50) (in general, the concentration needed to bring the measured effect to its halfway point) on D(3) dopamine receptor [1] (read-out: EC50) is 710 nM; on D(2) dopamine receptor [2] it was “Not Active”. In addition, at D(2) dopamine receptor [3], the Emax turned out to be 88%. The half-inhibitory concentration (IC50) (as a rule, the midpoint of a concentration-inhibition curve) at D(2) dopamine receptor [4] is > 100000 nM; against D(3) dopamine receptor [5], 10000 to 100000 nM.

For the compound `Cn1ccc2cc3c(cc21)CCN3C(=O)Nc1cccnc1`, the 50% effective concentration (EC50) in test [6] came out at 13 nM.

On to `COc1ccc(C(=O)N2CCN(CCOc3ccc4c(c3)OCO4)CC2)cc1`, for which the concentration for a half-maximal effect (EC50) is 310 nM on D(3) dopamine receptor [1] (read-out: EC50) and “Not Active” on D(2) dopamine receptor [2]. Moreover, at D(2) dopamine receptor [7], the concentration for half-maximal inhibition (IC50) is > 10000 nM. In addition, the Emax at D(2) dopamine receptor [3] came out at 87%.

As for `CCc1ccc(C(=O)N2CCN(CCOc3ccc(OC)cc3)CC2)cc1`, the EC50 on D(3) dopamine receptor [1] (read-out: EC50) was 530 nM; at D(2) dopamine receptor [2], “Not Active”. For the same compound, at D(2) dopamine receptor [7], the concentration for half-maximal inhibition (IC50) is 6000 nM. For the same compound, at D(2) dopamine receptor [3], the Emax stood at 106%.

For `O=C(c1cc2ccccc2[nH]1)N1CCN(CCOc2ccc(F)cc2)CC1`, the EC50 is 126 nM at D(3) dopamine receptor [1] (read-out: EC50) and > 50000 nM at D(2) dopamine receptor [2] (read-out: EC50). Further, the concentration for half-maximal inhibition (IC50) at D(2) dopamine receptor [7] was 9700 nM. In addition, the Emax on D(2) dopamine receptor [3] is 72%.

Regarding `COc1ccc(OCCN2CCN(C(=O)c3ccc(Cl)cc3)CC2)cc1`, the 50% effective concentration (EC50) result at D(3) dopamine receptor [1] and on D(2) dopamine receptor [2] was “Not Active” throughout. Also, at D(2) dopamine receptor [7], the IC50 turned out to be 9000 nM. The Emax on D(2) dopamine receptor [3] amounted to 107%.

In the case of `Cc1ccc(OCCN2CCN(C(=O)c3cc4ccccc4[nH]3)CC2)cc1C`, the results for the EC50 on D(3) dopamine receptor [1] (read-out: EC50) and at D(2) dopamine receptor [2] were 610 nM and “Not Active”, respectively. Also, the IC50 at D(2) dopamine receptor [7] was 13000 nM. The Emax on D(2) dopamine receptor [3] turned out to be 88%.

For the compound `COc1ccc(OCCN2CCN(C(=O)c3cc4ccccc4n3C)CC2)cc1`, the EC50 is 310 nM at D(3) dopamine receptor [1] (read-out: EC50) and “Not Active” at D(2) dopamine receptor [2]. For the same compound, the IC50 on D(2) dopamine receptor [7] was determined as 9600 nM. For the same compound, at D(2) dopamine receptor [3], the Emax was determined as 105%.

As to `O=C(c1cc2ccccc2[nH]1)N1CCN(CCOc2ccccc2)CC1`, the EC50 at D(3) dopamine receptor [1] (read-out: EC50) was determined as 9.2 nM; at D(2) dopamine receptor [2] (read-out: EC50), 1800 nM. On D(2) dopamine receptor [7], the 50% inhibitory concentration (IC50) came out at 535 nM. Further, the Emax on D(2) dopamine receptor [3] worked out at 37%.

With `COc1ccc(OC(C)CN2CCN(C(=O)c3ccc(OC)cc3)CC2)cc1` (stereo unspecified), the 50% effective concentration (EC50) result at D(2) dopamine receptor [2] is “Not Active”. For the same compound, the half-maximal inhibitory concentration (IC50) at D(2) dopamine receptor [7] is 18000 nM. The Emax at D(2) dopamine receptor [3] was 89%.

As to `COc1cccc(OCCN2CCN(C(=O)c3cc4cnccc4[nH]3)CC2)c1`, the 50% effective concentration (EC50) was determined as 280 nM on D(3) dopamine receptor [1] (read-out: EC50) and 830 nM on D(2) dopamine receptor [2] (read-out: EC50). Besides, the IC50 on D(2) dopamine receptor [7] came out at 7400 nM. Besides, the Emax at D(2) dopamine receptor [3] was determined as 30%.

The values above are taken from ChEMBL document CHEMBL4402608 (J Med Chem, 2020).
